Data from patent publication US7595320B2, “Hydrazinocarbonyl-thieno[2,3-C]pyrazoles, process for preparing them, compositions containing them and use thereof” (Aventis Pharma S.A., priority 2005, dated 2009).
pIC50: −log10 of the molar value. Structures can show the parent of a compound that is named as a salt.

What was measured:
Type in all cases: biochemical
CDK2/cycline E = target: T1, CDK2/cycline E (Homo sapiens, UniProt P24941); assay: CDK2/cyclineE Flashplate test in 96-well format; conditions: CDK2/cycline E complex, 1 μM ATP
T1 construct: made in house; host or cells: Sf21 insect cells (baculovirus coinfection)
Procedure, shortened: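 Recombinant human CDK2/cyclin E (His-tagged cyclin E, coexpressed in Sf21 cells), 20 nM, phosphorylates biotinylated pRb peptide (10 μM) with 1 μM ATP plus [γ-33P]ATP in HEPES pH 7.5, MgCl2, DTT at 30 °C. Inhibitors tested at 10 μM down to 0.014 μM; 33P incorporation read by scintillation on streptavidin plates.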

Aurora2 = target: T2, Aurora2 (Homo sapiens, UniProt O14965); assay: Aurora2 enzymatic test, NuMA phosphorylation with [33P]ATP, Flashplate; conditions: whole recombinant protein, 1 μM ATP
T2 construct: Aurora2: whole recombinant protein comprising an N-terminal histidine tail; His tag (N); made in house; host or cells: E. coli
T2 sequence (O14965 1-403): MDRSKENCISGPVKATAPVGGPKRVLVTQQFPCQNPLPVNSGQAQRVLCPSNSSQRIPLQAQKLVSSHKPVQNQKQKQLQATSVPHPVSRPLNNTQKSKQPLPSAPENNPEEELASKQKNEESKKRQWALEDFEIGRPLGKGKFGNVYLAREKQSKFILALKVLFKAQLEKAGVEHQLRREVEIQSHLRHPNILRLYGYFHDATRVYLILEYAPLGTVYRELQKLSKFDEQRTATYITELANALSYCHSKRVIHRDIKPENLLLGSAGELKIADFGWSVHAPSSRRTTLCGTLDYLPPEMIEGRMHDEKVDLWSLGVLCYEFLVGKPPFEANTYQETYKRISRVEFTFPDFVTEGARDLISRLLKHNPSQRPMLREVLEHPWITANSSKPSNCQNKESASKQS
Procedure, shortened: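 Full-length His-tagged Aurora2 (E. coli, >82% pure) at 10 nM phosphorylated 500 nM His-NuMA fragment on Ni-chelate Flashplates. Conditions were pH 7.5 Tris buffer with 10 mM MgCl2, 1 μM ATP plus [33P]ATP, 30 min at 37 °C.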

Aurora1 = target: T3, Aurora1 (Homo sapiens, UniProt Q96GD4); assay: Aurora1 enzymatic test, NuMA phosphorylation with [33P]ATP, Flashplate; conditions: Aurora-B/INCENP-C3 recombinant complex, 1 μM ATP
T3 construct: His tag (N); made in house
Procedure, shortened: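 Recombinant His-tagged Aurora-B/INCENP-C3 complex (10 nM) phosphorylates 500 nM His-NuMA fragment with 1 µM ATP plus [33P]ATP, 30 minutes at 37° C in Tris pH 7.5 with 5 mM MgCl2, on nickel-chelate Flashplates. Incorporated 33P counted; percent inhibition versus enzyme control after no-enzyme background subtraction.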

Tie2 = target: T4, Tie2 (Homo sapiens, UniProt Q02763); assay: Tie2 kinase test, phosphorylation of PLC with GST-Tie2; conditions: GST-Tie2 intracellular domain 776-1124
T4 construct: amino acids of the intracellular domain 776-1124; made in house; host or cells: baculovirus expression (pFastBacGT vector)
T4 sequence (Q02763 776-1124): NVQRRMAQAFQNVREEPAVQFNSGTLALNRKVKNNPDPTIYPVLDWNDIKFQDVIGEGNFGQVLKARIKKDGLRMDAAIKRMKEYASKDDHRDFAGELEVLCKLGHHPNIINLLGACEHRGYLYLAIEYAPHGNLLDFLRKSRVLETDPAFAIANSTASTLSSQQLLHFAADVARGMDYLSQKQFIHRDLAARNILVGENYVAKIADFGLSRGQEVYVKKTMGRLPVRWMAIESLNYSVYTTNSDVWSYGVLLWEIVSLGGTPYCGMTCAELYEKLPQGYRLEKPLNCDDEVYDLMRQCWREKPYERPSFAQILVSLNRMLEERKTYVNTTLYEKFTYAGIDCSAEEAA

T3 sequence (Q96GD4 whole entry, species assumed): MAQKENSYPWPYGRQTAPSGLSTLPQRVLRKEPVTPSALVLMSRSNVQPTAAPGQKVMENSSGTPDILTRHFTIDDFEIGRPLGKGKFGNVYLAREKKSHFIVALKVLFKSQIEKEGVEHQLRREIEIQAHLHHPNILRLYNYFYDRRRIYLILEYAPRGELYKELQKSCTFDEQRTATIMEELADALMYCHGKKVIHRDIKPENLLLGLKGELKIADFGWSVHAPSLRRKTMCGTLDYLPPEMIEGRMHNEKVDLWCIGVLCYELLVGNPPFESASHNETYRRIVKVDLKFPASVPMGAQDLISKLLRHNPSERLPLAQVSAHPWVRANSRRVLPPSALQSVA
T3 sequence (Q9NQS7 835-903 partner limits assumed, species assumed): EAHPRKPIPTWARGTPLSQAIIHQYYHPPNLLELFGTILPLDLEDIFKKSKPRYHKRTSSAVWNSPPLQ

CN(NC(=O)c1cc2c(NC(=O)c3cccc(CN4CCOCC4)c3)n[nH]c2s1)c1ccc(Cl)cc1 [Example 22b, N-{5-[N′-(4-chlorophenyl)-N′-methylhydrazinocarbonyl]-1H-thieno[2,3-c]pyrazol-3-yl}-3-morpholin-4-ylmethylbenzamide]
pIC50 (CDK2/cycline E): 6.15
pIC50 (Aurora2): 6.12
pIC50 (Aurora1): 6.02
pIC50 (Tie2): 5.50

CCN(CC)CCNCc1ccc(C(=O)Nc2n[nH]c3sc(C(=O)NN(C)c4ccccc4)cc23)cc1 [Example 23a, 4-[(2-diethylaminoethylamino)methyl]-N-[5-(N′-methyl-N′-phenylhydrazinocarbonyl)-1H-thieno[2,3-c]pyrazol-3-yl]-benzamide]
pIC50 (CDK2/cycline E): 6.84
pIC50 (Aurora2): 7.19
pIC50 (Aurora1): 6.70
pIC50 (Tie2): 6.37

CCN(CC)CCNCc1ccc(C(=O)Nc2n[nH]c3sc(C(=O)NN(C)c4ccc(Cl)cc4)cc23)cc1 [Example 23b, N-{5-[N′-(4-chlorophenyl)-N′-methylhydrazinocarbonyl]-1H-thieno[2,3-c]pyrazol-3-yl}-4-[(2-diethylaminoethylamino)methyl]benzamide]
pIC50 (CDK2/cycline E): 6.86
pIC50 (Aurora2): 7.00
pIC50 (Aurora1): 6.59
pIC50 (Tie2): 6.27

CC(C)N(Cc1ccc(C(=O)Nc2n[nH]c3sc(C(=O)NN(C)c4ccccc4)cc23)cc1)C(C)C [Example 25, 4-[(diisopropylamino)methyl]-N-[5-(N′-methyl-N′-phenylhydrazinocarbonyl)-1H-thieno[2,3-c]pyrazol-3-yl]benzamide trifluoroacetate]
pIC50 (CDK2/cycline E): 6.50
pIC50 (Aurora2): 7.60
pIC50 (Aurora1): 6.60
pIC50 (Tie2): 6.48

COc1ccc(C(=O)Nc2n[nH]c3sc(C(=O)NNCc4ccccc4)cc23)cc1 [Example 26, N-[5-(N′-benzylhydrazinocarbonyl)-1H-thieno[2,3-c]pyrazol-3-yl]-4-methoxybenzamide]
pIC50 (CDK2/cycline E): 7.12
pIC50 (Aurora2): 7.64
pIC50 (Aurora1): 7.38
pIC50 (Tie2): 6.76

COc1ccc(C(=O)Nc2n[nH]c3sc(C(=O)NNc4ccccn4)cc23)cc1 [Example 27, 4-methoxy-N-[5-(N′-pyrid-2-ylhydrazinocarbonyl)-1H-thieno[2,3-c]pyrazol-3-yl]benzamide]
pIC50 (CDK2/cycline E): 6.17
pIC50 (Aurora2): 7.51
pIC50 (Aurora1): 7.29
pIC50 (Tie2): 6.53

CN1CCN(c2ccc(C(=O)Nc3n[nH]c4sc(C(=O)NN(C)c5ccc(Cl)cc5)cc34)cc2)CC1 [Example 28, N-{5-[N′-(4-chlorophenyl)-N′-methylhydrazinocarbonyl]-1H-thieno[2,3-c]pyrazol-3-yl}-4-(4-methylpiperazin-1-yl)benzamide]
pIC50 (CDK2/cycline E): 6.88
pIC50 (Aurora2): 8.70
pIC50 (Aurora1): 8.22
pIC50 (Tie2): 6.97

COC[C@@H]1CCCN1NC(=O)c1cc2c(NC(=O)c3ccc(N4CCN(C)CC4)cc3)n[nH]c2s1 [Example 29, N-(2-methoxymethylpyrrolidin-1-yl)-3-[4-(4-methylpiperazin-1-yl)benzoylamino]-1H-thieno[2,3-c]pyrazole-5-carboxamide]
pIC50 (CDK2/cycline E): 6.23
pIC50 (Aurora2): 7.96
pIC50 (Aurora1): 7.55
pIC50 (Tie2): 6.79

CN1CCN(c2ccc(C(=O)Nc3n[nH]c4sc(C(=O)NN(C)Cc5ccccc5)cc34)cc2)CC1 [Example 30, N-[5-(N′-benzyl-N′-methylhydrazinocarbonyl)-1H-thieno[2,3-c]pyrazol-3-yl]-4-(4-methylpiperazin-1-yl)benzamide]
pIC50 (CDK2/cycline E): 6.66
pIC50 (Aurora2): 8.22
pIC50 (Aurora1): 7.92
pIC50 (Tie2): 6.89

CN1CCN(c2ccc(C(=O)Nc3n[nH]c4sc(C(=O)NN5CCCCC5)cc34)cc2)CC1 [Example 31, N-(piperidin-1-yl)-3-[4-(4-methylpiperazin-1-yl)benzoylamino]-1H-thieno[2,3-c]pyrazole-5-carboxamide]
pIC50 (CDK2/cycline E): 6.56
pIC50 (Aurora2): 7.59
pIC50 (Aurora1): 7.02
pIC50 (Tie2): 5.51

CN1CCN(c2ccc(C(=O)Nc3n[nH]c4sc(C(=O)NNCc5ccccc5)cc34)cc2)CC1 [Example 32, N-[5-(N′-benzylhydrazinocarbonyl)-1H-thieno[2,3-c]pyrazol-3-yl]-4-(4-methylpiperazin-1-yl)benzamide]
pIC50 (CDK2/cycline E): 6.96
pIC50 (Aurora2): 8.40
pIC50 (Aurora1): 7.60
pIC50 (Tie2): 7.42

CN1CCN(c2ccc(C(=O)Nc3n[nH]c4sc(C(=O)NN(Cc5ccccc5)c5ccccc5)cc34)cc2)CC1 [Example 34, N-[5-(N′-benzyl-N′-phenylhydrazinocarbonyl)-1H-thieno[2,3-c]pyrazol-3-yl]-4-(4-methylpiperazin-1-yl)benzamide]
pIC50 (CDK2/cycline E): 5.80
pIC50 (Aurora2): 8.30
pIC50 (Aurora1): 7.89
pIC50 (Tie2): 7.42

CN1CCN(c2ccc(C(=O)Nc3n[nH]c4sc(C(=O)NN(C)c5ccccc5)cc34)cc2)CC1 [Example 35, N-[5-(N′-methyl-N′-phenylhydrazinocarbonyl)-1H-thieno[2,3-c]pyrazol-3-yl]-4-(4-methylpiperazin-1-yl)benzamide]
pIC50 (CDK2/cycline E): 6.92
pIC50 (Aurora2): 8.40
pIC50 (Aurora1): 8.40
pIC50 (Tie2): 7.54

CN1CCN(c2ccc(C(=O)Nc3n[nH]c4sc(C(=O)NN(CC5CCC5)c5ccc(Cl)cc5)cc34)cc2)CC1 [Example 36, N-{5-[N′-(4-chlorophenyl)-N′-cyclobutylmethylhydrazinocarbonyl]-1H-thieno[2,3-c]pyrazol-3-yl}-4-(4-methylpiperazin-1-yl)-benzamide]
pIC50 (CDK2/cycline E): 5.72
pIC50 (Aurora2): 8.30
pIC50 (Aurora1): 8.05
pIC50 (Tie2): 8.22

CCN(NC(=O)c1cc2c(NC(=O)c3ccc(N4CCN(C)CC4)cc3)n[nH]c2s1)c1ccc(F)cc1 [Example 37, N-{5-[N′-ethyl-N′-(4-fluorophenyl)hydrazinocarbonyl]-1H-thieno[2,3-c]pyrazol-3-yl}-4-(4-methylpiperazin-1-yl)benzamide]
pIC50 (CDK2/cycline E): 7.27
pIC50 (Aurora2): 7.70
pIC50 (Aurora1): 7.49
pIC50 (Tie2): 7.25

COCCN(NC(=O)c1cc2c(NC(=O)c3ccc(N4CCN(C)CC4)cc3)n[nH]c2s1)c1ccc(F)cc1 [Example 38, N-{5-[N′-(4-fluorophenyl)-N′-(2-methoxyethyl)-hydrazinocarbonyl]-1H-thieno[2,3-c]pyrazol-3-yl}-4-(4-methylpiperazin-1-yl)-benzamide]
pIC50 (CDK2/cycline E): 6.67
pIC50 (Aurora2): 8.40
pIC50 (Aurora1): 7.68
pIC50 (Tie2): 7.24

CCN(NC(=O)c1cc2c(NC(=O)c3ccc(N4CCN(C)CC4)cc3)n[nH]c2s1)c1ccccc1C [Example 39, N-[5-(N′-ethyl-N′-o-tolylhydrazinocarbonyl)-1H-thieno[2,3-c]pyrazol-3-yl]-4-(4-methylpiperazin-1-yl)benzamide]
pIC50 (CDK2/cycline E): 7.28
pIC50 (Aurora2): 7.57
pIC50 (Aurora1): 7.82
pIC50 (Tie2): 7.66

CCN(NC(=O)c1cc2c(NC(=O)c3ccc(N4CCN(C)CC4)cc3)n[nH]c2s1)c1cccc(C)c1 [Example 40, N-[5-(N′-ethyl-N′-m-tolylhydrazinocarbonyl)-1H-thieno[2,3-c]pyrazol-3-yl]-4-(4-methylpiperazin-1-yl)benzamide]
pIC50 (CDK2/cycline E): 6.98
pIC50 (Aurora2): 7.77
pIC50 (Aurora1): 7.96
pIC50 (Tie2): 7.60

CC(C)CN(NC(=O)c1cc2c(NC(=O)c3ccc(N4CCN(C)CC4)cc3)n[nH]c2s1)c1ccc(F)cc1 [Example 42, N-{5-[N′-(4-fluorophenyl)-N′-isobutylhydrazinocarbonyl]-1H-thieno[2,3-c]pyrazol-3-yl}-4-(4-methylpiperazin-1-yl)benzamide]
pIC50 (CDK2/cycline E): 5.95
pIC50 (Aurora2): 8.22
pIC50 (Aurora1): 7.62
pIC50 (Tie2): 7.21

CCN(NC(=O)c1cc2c(NC(=O)c3ccc(N4CCN(C)CC4)cc3)n[nH]c2s1)c1cccc(Br)c1 [Example 43, N-{5-[N′-(3-bromophenyl)-N′-ethylhydrazinocarbonyl]-1H-thieno[2,3-c]pyrazol-3-yl}-4-(4-methylpiperazin-1-yl)benzamide]
pIC50 (CDK2/cycline E): 7.49
pIC50 (Aurora2): 9.00
pIC50 (Aurora1): 8.30
pIC50 (Tie2): 8.10

CN1CCCN(c2ccc(C(=O)Nc3n[nH]c4sc(C(=O)NN(C)c5ccccc5)cc34)cn2)CC1 [Example 44, 6-(4-methyl[1,4]diazepan-1-yl)-N-[5-(N′-methyl-N′-phenylhydrazinocarbonyl)-1H-thieno[2,3-c]pyrazol-3-yl]nicotinamide]
pIC50 (CDK2/cycline E): 6.70
pIC50 (Aurora2): 8.22
pIC50 (Aurora1): 7.68
pIC50 (Tie2): 6.97
